Assays:
[1] = system: human keratinocyte cell line HaCaT cells; test: MTT assay, cytotoxicity in human keratinocyte cell line; type: cell-based
Description: (§1) Firstly, the cytotoxicity is measured by the MTT assay. Phytosphingosine (PS), phytosphingosine-HCl (PS-HCl), C6-phytosphingosine (C6-PS), CLA-phytosphingosine (CLA-PS), tetraacetyl phytosphingosine (TAPS), and N-acetyl phytosphingosine (NAPS) are dissolved into DMSO to have the final concentration of 1-100 μM.
(§2) In order to study the effects of the compositions of the present invention on the cytotoxicity in the human keratinocyte cell line HaCaT cells, the cell viability is analyzed by the MTT (3-[4,5-dimethylthiazol-2-yl]-2,5-diphenyltetrazolium bromide) assay. HaCaT cells are supplied by Professor N. Fuseng of German Cancer Research in Germany. HaCaT cells are seeded in a density of 1×10^6 cells in a […] and cultured in DMEM (Dulbecco's Modified Eagle Medium) containing 10% fetal bovine serum (FBS, GIBCO), 100 units/ml penicillin, and 100 μg/ml streptomycin for 48 hours. They are treated with trypsin and 1-2×10^4 cells per well are seeded again in a 96-well plate by using a serum-free culture medium, about 3 hours after which they are cultured by treatment with phytosphingosine derivatives. After they are cultured for 24 hours, the MTT reagent is added at a concentration of 2 mg/ml, cultured for 4 hours, suspended in DMSO after removing the culture medium completely in order to measure O.D. at 540 nm. C2-ceramide is used for comparison.

[2] = system: A431 cells, human skin cancer cell line; test: MTT assay, cytotoxicity in human skin cancer cell line; type: cell-based
Description: as §1, §2
In order to study the effects of the compositions of the present invention on the cytotoxicity in A431 cells, human skin cancer cell line, the MTT assay is used. The method of cell culture and MTT assay are the same as those in the above method. C2-ceramide is used for comparison.

[3] = system: human umbilical vein endothelial cells (HUVEC); test: MTT assay, cytotoxicity in HUVEC; type: cell-based
Description: as §1, §2
The MTT assay is used for the above purpose. Primary human umbilical vein endothelial cells are cultured from the human umbilical vein. The method of cell culture and the MTT assay are the same as those in the above. C2-ceramide is used for comparison.

[4] = system: immune cells (T cells, B cells, macrophages, monocytes) from spleen of mice; test: MTT assay, cytotoxicity in immune cells separated from spleen of mice; type: cell-based
Description: The effect of the composition of the present invention on the cytotoxicity in immune cells (T cells, B cells, macrophages, monocytes, etc.) was examined. The spleen was removed from normal mice (BDF) and single cells were obtained from the spleen by mechanical aggregation method. And mononuclear cells containing T cells, B cells, macrophages and monocytes were isolated from single cells by density gradient centrifugation method using Ficoll Hypaque. Briefly, single cells were treated with PBS and overlayed on Ficoll Hypaque and centrifuged at 1500 rpm for 30 min. After centrifugation, the cells around the boundary of the Ficoll-Hapaque were collected and washed three times with PBS. The isolated cells were cultured for 24 hours in the presence of 1, 10, 50 and 100 μM of NAPS, TAPS, and PS to examine the effect of cytotoxicity, i.e. the degree of proliferation of the cells. C2-ceramide was used as control. The medium used in this experiment was RPMI 1640 suplemented with 10% of FBS and 100 μg/ml of penicillin and streptomycin.

[5] = system: peripheral blood mononuclear cells (PBMC); test: MTT assay, cytotoxicity in peripheral blood mononuclear cells; type: cell-based, human; details: up to 100 μM, 24 hours, FIG. 3
Description: The effects of the composition of the present invention on the cytotoxicity in immune cells (T cells, B cells, macrophages, monocytes, etc.) obtained from human blood were examined. The blood was obtained from healthy volunteers and PBMC from the blood by mechanical aggregation method. And mononuclear cells containing T cells, B cells, macrophages and monocytes were isolated from single cells by density gradient centrifugation method using Ficoll Hypaque. Briefly, single cells were treated with PBS and overlayed on Ficoll Hypaque and centrifuged at 1500 rpm for 30 min. After centrifugation, the cells around the boundary of the Ficoll-Hapaque were collected and washed three times with PBS. […] And RPMI with 10% of serum was used as a medium. The isolated cells were cultured for 24 hours in the presence of 1, 10, 50 and 100 μM of NAPS, TAPS, and PS to examine the effect of cytotoxicity, i.e. the degree of proliferation of the cells. C2-ceramide was used as control.

Th1 cells activation = test: Mixed leukocyte reaction (MLR), Th1 cells activation by TNBSO3, MTT assay; type: cell-based, mice; details: MLR with TNBSO3-conjugated stimulator cells, FIG. 4
Description: Whether the composition of the present invention has a suppressive effect on the Th1 cells activation which isolate […], IL-12, etc. by reacting with TNBSO3 […] was examined.
The mononuclear cells obtained from spleen of mice as described the above 4 were used for responder cells, and TNBSO3-conjugated cells were used for stimulator cells. The stimulator cells were obtained as follows:
The mononuclear cells were adjusted to be 2×10^7 cells/ml in PBS and the same volume of 20 mM TNBSO3 was added and incubated at 37° C. for 10 min in the dark state. After incubation, the cells wrer washed three times with PBS.
(§3) Each 2×10^5 responder cells and stimulator cells were mixed with each other and cultured for 5 days on the 96-well plate. And RPMI with 10% of serum was used as a medium.
(§4) The above cells were cultured for 24 hours in the presence of 1, 10, 50 and 100 μM of NAPS, TAPS, and PS to examine the proliferation of the cells.
(§5) C2-ceramide was used as control.

[6] = system: Th1 cells activation against allogenic cells (PBMC); test: Reactions among allogenic cells, Th1 cells activation, MTT assay; type: cell-based, human; details: 50 μM, FIG. 5
From the text: Whether the composition of the present invention has a suppressive effect on the Th1 cells activation by allogenic cells in immune reation was examined.
PBMC obtained from different volunteers as described in the above 5 were used for responder cells and stimulator cells respectively. PBMC for stimulator cells were used after X-ray irradiation (3000 rad) to inhibit the proliferation of stimulator cells.
as §3, §4, §5

[7] = system: HaCaT cells human keratinocyte cell line; test: MTT assay, combined administration with Vit D3 or calcipotriol; type: cell-based; details: 24 hours; for Cell viability: HaCaT, in %
Description: In order to study the synergistic effect in the cytotoxicity when the compositions of the present invention are administered in combination with Vit D3 or calcipotriol, the cell viability is analyzed by MTT assay method in HaCaT cells human keratinocyte cell line.
To HaCaT cells, 1 μM of Vit D3 or calcipotriol, or 10 μM each of NAPS and TAPS, is administered singly or in combination with each other, and they are cultured for 24 hours. And the effects of these drugs on the cytotoxicity according to the single or combined administration are observed by MTT assay. C2-ceramide is used for comparison.

caspase-3 = test: Immunoblot analysis of active caspase-3; type: cell-based, human; details: HaCaT, FIG. 11
Description: In the confirmation of apoptosis-related proteins, the immunoblot analysis is performed in order to look into the effects of the compositions of the present invention on the expression of caspase-3, p53, and Chk1 proteins related to the induction of apoptosis.
HaCaT cells are cultured on a 100-mm dish and collected at the indicative time. The proteins are extracted by adding 500 μl of RIPA lysis buffer (1% Nonidet P-40, 1% sodium deoxycholate, 0.1% SDS, […], 0.01 M sodium phosphate, pH 7.2, 2 mM EDTA, 50 mM sodium fluoride and 0.2 mM sodium vanadate), and the concentration is measured by using the Bradford method. 1
Extracted proteins is electrophoresed on 12% polyacrylamide gel, and they are transferred to the nitrocellulose membrane. The membrane blocked with 5% non-fat milk is reacted with the primary antibodies (caspase-3, p53, and Chk1), washed, and reacted with the secondary HRP-conjugated antibody. The intensity of proteins is analyzed by using the ECL kit.

HaCaT cells = test: MTT assay, combined treatment with UVB irradiation; type: cell-based, human; parameters: Cell viability: unit not given here; details: HaCaT
Description: In order to study the synergistic effect in the cytotoxicity by the cotreatment with administration of the compositions of the present invention and with UVB irradiation, the cell viability is analyzed by MTT assay method in HaCaT cells. On a 100-mm dish, 1×10^6 HaCaT cells are seeded and cultured in DMEM containing 10% fetal bovine serum, 100 units/ml penicillin, and 100 μg/ml streptomycin for 48 hours. They are treated with trypsin, and 1-2×10^4 cells per well are seeded on a 96-well plate again by using a serum-free medium, which is removed after about 3 hours. HaCaT cells are washed with PBS three times, and 3.5 ml of PBS per plate is added. It is then irradiated with 200 J/m^2 of UVB. After irradiation, the medium is replaced with a DMEM medium. Then it is treated with the phytosphingosine derivatives of the present invention, and cultured for 24 hours. After 2 mg/ml of the MTT reagent is added, it is cultured for 4 hours. The medium is removed completely, the cells are suspended in DMSO, and O.D. is measured at 540 nm.

## CCCCCCCCCCCCC/C=C/[C@@H](O)[C@H](CO)NC(C)=O [C2-ceramide, reference compound]
[1]; 1 µM
  Cell viability: 97 ± 3.8
[1]; 3 µM
  Cell viability: 98 ± 2.5
[1]; 10 µM
  Cell viability: 75 ± 1.3
[1]; 30 µM
  Cell viability: 33 ± 0.6
[2]; 3 µM
  Cell viability: 113 ± 19.8
[2]; 10 µM
  Cell viability: 97 ± 14.7
[2]; 30 µM
  Cell viability: 82 ± 1.4
[2]; 50 µM
  Cell viability: 74 ± 12.8
[3]; 3.5 µM
  Cell viability: 90 ± 11.6
[3]; 7 µM
  Cell viability: 60 ± 7.7
[3]; 15 µM
  Cell viability: 61 ± 8.4
[3]; 30 µM
  Cell viability: 34 ± 2.3
[4]
  IC50: ~75 µM
[5]
  cytotoxicity to PBMC: did not show the cytotoxicity
Th1 cells activation
  concentration showing a suppressive effect on Th1 cells activation: 50 µM
[6]
  suppressive effect on Th1 cells activation against allogenic cells: almost no suppressive effect
[7]; 10 μM combined with Vit D3 (1 μM)
  Cell viability: 71 ± 9
[7]; 10 μM combined with calcipotriol (1 μM)
  Cell viability: 70 ± 4
[7]; 10 μM singly
  Cell viability: 78 ± 2
caspase-3; after treatment
  time to maximum active caspase-3: ≤ 3 h
caspase-3; immunoblot
  maximum increase of active caspase-3 (expression of induction): 2.5 folds

## CCCCCCCCCCCCCCC(O)C(O)C(CO)NC(=O)CCCCC (centres unmarked) [C6-PS, C6-phytosphingosine]
[1]; 1 µM
  Cell viability: 84 ± 16.8
[1]; 3 µM
  Cell viability: 96 ± 7.2
[1]; 10 µM
  Cell viability: 74 ± 10.1
[1]; 30 µM
  Cell viability: 87 ± 1.3
[2]; 3 µM
  Cell viability: 106 ± 9.7
[2]; 10 µM
  Cell viability: 61 ± 8.1
[2]; 30 µM
  Cell viability: 57 ± 10.4
[2]; 50 µM
  Cell viability: 44 ± 9.6

## CCCCCCCCCCCCCC[C@@H](O)[C@@H](O)[C@@H](N)CO.Cl [PS-HCl, phytosphingosine-HCl]
[1]; human, 24 h, 1 µM
  Cell viability: 100 ± 4.1
[1]; human, 24 h, 3 µM
  Cell viability: 101 ± 2.2
[1]; human, 24 h, 10 µM
  Cell viability: 79 ± 7.0
[1]; human, 24 h, 30 μM
  Cell viability: 36 ± 6.8
[2]; human, 24 h, 3 µM
  Cell viability: 105 ± 5.8
[2]; human, 24 h, 10 µM
  Cell viability: 109 ± 8.6
[2]; human, 24 h, 30 μM
  Cell viability: 7 ± 1.6
[2]; human, 24 h, 50 μM
  Cell viability: 2 ± 0.2
  cytotoxicity: 95-98%
HaCaT cells; 1 μM + UVB 200 J/m^2, 24 hours
  Cell viability: 39 ± 4.5
HaCaT cells; 1 μM, no UVB, 24 hours
  Cell viability: 83 ± 7.9
HaCaT cells; 3 μM + UVB 200 J/m^2, 24 hours
  Cell viability: 24 ± 2.0
HaCaT cells; 3 μM, no UVB, 24 hours
  Cell viability: 78 ± 10.0
HaCaT cells; 5 μM + UVB 200 J/m^2, 24 hours
  Cell viability: 25 ± 1.9
HaCaT cells; 5 μM, no UVB, 24 hours
  Cell viability: 78 ± 6.7
HaCaT cells; 10 μM + UVB 200 J/m^2, 24 hours
  Cell viability: 2 ± 0.5
HaCaT cells; 10 μM, no UVB, 24 hours
  Cell viability: 75 ± 8.2

## C=C1CC[C@H](O)C/C1=C/C=C1\CCC[C@]2(C)[C@@H]([C@H](C)CCCC(C)C)CC[C@@H]12 [Vit D3, vitamin D3, reference compound]
[7]; 1 μM singly
  toxicity: 19%
  Cell viability: 81 ± 3

## CLA-phytosphingosine [CLA-PS]
[1]; 1 µM
  Cell viability: 66 ± 7.8
[1]; 3 µM
  Cell viability: 64 ± 9.9
[1]; 10 µM
  Cell viability: 58 ± 0.4
[1]; 30 µM
  Cell viability: 55 ± 9.1
[2]; 3 µM
  Cell viability: 91 ± 11.0
[2]; 10 µM
  Cell viability: 98 ± 12.9
[2]; 30 µM
  Cell viability: 60 ± 6.2
[2]; 50 µM
  Cell viability: 65 ± 5.5

— patent US20060166934A1, “Composition comprising phytosphingosine derivatives for apoptosis induction” (Tae-Yoon Kim, priority 2002, published 2006)
